Reference: a melting point compilation (Tetko et al.; mined from patent text by program, amines drawn as free bases though some values may be those of a salt)

SMILES | melting point
CC(CO)Nc1nc(-c2ccc(Br)cc2)cs1 (centres undefined) | 100 to 101 °C
CCNc1nc(C)c(C(=O)OCC)c(N2CCN(C)CC2)c1N | 73 to 75 °C
Cc1c(C(=O)Nc2ccc(N(CCO)CCO)c(C#N)c2)c2cc(F)ccc2n1CC(=O)O | 150 to 153 °C
CCCc1nc2c(N)nc3ccccc3c2n1CCCCCC(=O)OCC | 112 to 113 °C
Cc1c(C)c(N2Cc3ccccc3C2)c(C)c2c1OC(C)(C)C2 | 161 to 163 °C
CCC(COCc1cc(OC)c(O)c(OC)c1)(c1cccs1)N(C)C (centres undefined) | 126 to 127 °C
COc1ccc(CN2C(=O)[C@H](NC(=O)OC(C)(C)C)[C@@H]2/C=C/C(N)=O)c(OC)c1 | 270 °C
Cc1nn(C)c2c1c1oc(=O)c(Sc3ccccc3)c(O)c1c(=O)n2Cc1ccc(F)cc1 | 159 to 160 °C
CC(=O)Nc1ccc(C(=O)C=CC(=O)O)cc1 | 206 to 207 °C
Clc1cc(-c2ccccc2)nc2nn(-c3ccccc3)cc12 | 175 to 177 °C
CCCn1nc2c(N)nc3ccccc3c2c1CCNC(=O)Nc1ccc(F)cc1 | 201 to 202 °C
CCC1(O)CSC(=S)N1c1cccc(C)n1 (centres undefined) | 118 °C
CN(C)C(=O)COc1cc(Cl)ccc1C(=O)NCCN1CCN(CCc2ccccc2)CC1 | 159 to 160 °C
CC(C)C[C@@H](C=NNC(N)=O)NC(=O)[C@H](Cc1c[nH]cn1)NC(=O)C(CCCCc1ccccc1)Cc1cccc2ccccc12 (some centres undefined) | 108 to 114 °C
CCC(C)CNC(=O)c1cc(NC)cc(C(=O)NCC(C)CC)c1 (centres undefined) | 160 to 161 °C
CCCN1CC=C(c2c(C)[nH]c3cc(OC)ccc23)CC1 | 90 to 95 °C
CCCCOc1ccc(C(=O)NCCCCCCCNC(=O)c2ccc(OCCCC)cc2)cc1 | 151 to 152 °C
COC(=O)c1nsc2ccc(-n3c(=O)cc(C(F)(F)F)n(C)c3=O)cc12 | 153 to 156 °C
Cc1cc(C#N)cc(C)c1OCCCC1=NNC(=O)CC1 | 124 °C
CCCc1c(OCC(O)CNc2cccc(N)c2C#N)ccc(C(C)=O)c1O (centres undefined) | 111 to 114 °C

SMILES | melting point
O=C(NC1CCN(CCC2CCOc3ccccc32)CC1)c1cccnc1 (centres undefined) | 126 to 128 °C
CN1C(=O)C(C)(C)c2ccc(C(=O)Nc3ccccc3)cc21 | 184 to 186 °C
O=C(O)Cc1ccc(-n2cccn2)c(Br)c1 | 100 to 101 °C
Cn1cc(-c2cccc(N3Cc4cc(C(C)(C)C)ccc4C3=O)c2CO)nc(Nc2cccnc2)c1=O | 149 to 150 °C
CC(C)c1ccccc1N1/C(=N\N=C/c2ccc(-c3ncn(-c4ccc(OC(F)(F)F)cc4)n3)cc2)SCC1(O)C(F)(F)F (centres undefined) | 185 to 187 °C
COc1cc2ncnc(Nc3ccc(F)c(Cl)c3)c2cc1OCCCC1OCCO1 | 170 to 171 °C
CCc1c(C)[nH]c(=O)c(I)c1Oc1cc(I)cc(CC#N)c1 | 220 °C
O=C(c1cc2cc(OCCNC[C@H](O)COc3ccccc3)ccc2o1)N1CCCC1 | 117 to 118 °C
CN1C(=O)C2(COc3cc4c(cc32)OCCO4)c2c1cccc2-n1ccccc1=O (centres undefined) | 212 to 214 °C
O=C1NCCNC1c1ccc(F)cc1 (racemic) | 115 °C
O=C(CC(=O)C1CC1)c1cnc2ccccc2n1 | 113 to 115 °C
CCCC(=O)c1ccc2[nH]cc3c2c1CC(N(CCC)CCC)C3 (centres undefined) | 151 to 153 °C
CCOC(=O)COCCn1c(=O)[nH]c2ccccc2c1=O | 115 to 116 °C
COC(=O)c1cccc(OCc2ccc3ccccc3c2)c1C | 47 to 48 °C
CC(=Cc1ccc2ccccc2n1)C(=O)NO | 182 to 183 °C
O=C1c2c(Cl)cccc2-n2cnc(I)c2[C@@H]2CCCN12 | 298 to 300 °C
CS(=O)(=O)N(c1ccccc1)C1CCN(Cc2ccccc2)CC1 | 125 °C
Cc1cc(SC(C)c2ccc3nc(-c4ccc(C(F)(F)F)cc4)sc3c2)ccc1OCC(=O)O (centres undefined) | 170 to 173 °C
CCOC(=O)C1(NC(=O)OCc2ccccc2)CC(=O)NC1=O (centres undefined) | 105 to 106 °C
